Like-named read-outs stand apart in the source and are kept apart here.
Experiments:
[1] = tested on: Trypanosoma brucei brucei 427 trypomastigotes; assay: In vitro antitrypanosomal assay (resazurin parasite viability); type: cell-based; details: T. b. brucei 427 strain; for IC50: Trypanosoma brucei
Method: (§1) A single concentration (20 µM) cytotoxicity evaluation of all compounds was conducted in duplicates using a human cervix adenocarcinoma (HeLa) cell line, with emetine (EMT) included as a reference drug and cell viability relative to untreated cells assessed using resazurin. […] The anti-trypanosomal activity of prepared compounds against nagana T. b. brucei (the subspecies responsible for African trypanosomiasis in cattle) parasite cultures were determined using the T. b. brucei 427 strain. Pentamidine (PMD), which is an existing drug for the treatment of trypanosomiasis, was included as a positive control drug. The trypanocidal activity of each compound was initially assessed at a fixed concentration of 20 μM, using resazurin as a read-out of cell viability after compound exposure. […] From Table 1, the structural modification was initially performed on the arylpyrrole moiety (ring B) of the chalcones, while keeping the ring A unchanged. […] Introduction of the fluorine, highly electronegative atom, at the para-position (10b) appeared to enhance the activity against T. b. brucei; however, the activity diminished when the fluorine was replaced by chlorine (10c).
Trypanosoma brucei brucei 427 trypomastigotes were cultured in Iscove’s Modified Dulbecco’s medium (IMDM, Lonza, Basel Switzerland) and supplemented with 10% fetal calf serum, HMI-9 supplement, hypoxanthine and penicillin/streptomycin at 37 °C in a 5% CO2 incubator. Serial dilutions of test compounds were incubated with the parasites in 96-well plates for 24 h, and residual parasite viability in the wells determined by adding 20 µL resazurin toxicology reagent (Sigma-Aldrich) and incubating for an additional 24 h. Reduction of resazurin to resorufin by viable parasites was assessed by fluorescence readings (excitation 560 nm, emission 590 nm) in a Spectramax M3 plate reader (Molecular Devices, San Jose, CA, USA). Fluorescence readings were converted to % parasite viability relative to the average readings obtained from untreated control wells. IC50 values were determined by plotting % viability vs. log[compound] and performing non-linear regression using GraphPad Prism (v. 5.02) software.

[2] = In vitro cytotoxicity assay, HeLa cells (resazurin cell viability); type: cell-based; details: human
Method: as §1
HeLa cells (Cellonex, Johannesburg, South Africa) seeded in 96-well plates were incubated with 20 µM test compounds and cell viability assessed with resazurin, as previously described. Fluorescence readings (excitation 560 nm, emission 590 nm) obtained for the individual wells were converted to % cell viability relative to the average readings obtained from untreated control wells. Plots of % cell viability vs. log[compound] were used to determine IC50 values by non-linear regression using GraphPad Prism (v. 5.02).

[3] = 48 h, 24 h compound incubation + 24 h resazurin, na = not active (cell viability ≥50% in preliminary single point assay at 20 μM), read-out: T. b. brucei IC50
[4] = 24 h compound incubation + 24 h resazurin, na = not active (cell viability ≥50% in preliminary single point assay at 20 μM)

IC50 [1, 3]	Structure (SMILES)	viability at 20 µM [2]	further results
11.5 µM	Cc1cc(/C=C/C(=O)c2cc(Br)ccc2O)c(C)n1-c1ccccc1 [Compound 10a, (E)-1-(5-Bromo-2-hydroxyphenyl)-3-(2,5-dimethyl-1-phenyl-1H-pyrrol-3-yl)prop-2-en-1-one]	> 100%	
6.9 µM	Cc1cc(/C=C/C(=O)c2cc(Br)ccc2O)c(C)n1-c1ccc(F)cc1 [Compound 10b, (E)-1-(5-Bromo-2-hydroxyphenyl)-3-(1-(4-fluorophenyl)-2,5-dimethyl-1H-pyrrol-3-yl)prop-2-en-1-one]	> 100%	
40 µM	Cc1cc(/C=C/C(=O)c2cc(Br)ccc2O)c(C)n1-c1ccc(Cl)cc1 [Compound 10c, (E)-1-(5-Bromo-2-hydroxyphenyl)-3-(1-(4-chlorophenyl)-2,5-dimethyl-1H-pyrrol-3-yl)prop-2-en-1-one]	> 100%	
10.5 µM	Cc1cc(/C=C/C(=O)c2cc(Br)ccc2O)c(C)n1-c1ccc(Br)cc1 [Compound 10d, (E)-1-(5-Bromo-2-hydroxyphenyl)-3-(1-(4-bromophenyl)-2,5-dimethyl-1H-pyrrol-3-yl)prop-2-en-1-one]	> 100%	
4.09 µM	Cc1cc(/C=C/C(=O)c2cc(Br)ccc2O)c(C)n1-c1cccc(C(F)(F)F)c1 [Compound 10e, (E)-1-(5-Bromo-2-hydroxyphenyl)-3-(2,5-dimethyl-1-(3-(trifluoromethyl)phenyl)-1H-pyrrol-3-yl)prop-2-en-1-one]	> 100%	
11.4 µM	Cc1cc(/C=C/C(=O)c2cc(Br)ccc2O)c(C)n1-c1ccc(C(F)(F)F)cc1 [Compound 10f, (E)-1-(5-Bromo-2-hydroxyphenyl)-3-(2,5-dimethyl-1-(4-(trifluoromethyl)phenyl)-1H-pyrrol-3-yl)prop-2-en-1-one]	> 100%	
10 µM	Cc1cc(/C=C/C(=O)c2cc(Br)ccc2O)c(C)n1-c1ccccc1C(F)(F)F [Compound 10g, (E)-1-(5-Bromo-2-hydroxyphenyl)-3-(2,5-dimethyl-1-(2-(trifluoromethyl)phenyl)-1H-pyrrol-3-yl)prop-2-en-1-one]	> 100%	
< 6 µM	Cc1cc(/C=C/C(=O)c2cc(Br)ccc2O)c(C)n1-c1ccc([N+](=O)[O-])cc1 [Compound 10h, (E)-1-(5-Bromo-2-hydroxyphenyl)-3-(2,5-dimethyl-1-(4-nitrophenyl)-1H-pyrrol-3-yl)prop-2-en-1-one]	> 100%	
< 10 µM	Cc1cc(/C=C/C(=O)c2cc(Br)ccc2O)c(C)n1-c1cccc([N+](=O)[O-])c1 [Compound 10i, (E)-1-(5-bromo-2-hydroxyphenyl)-3-(2,5-dimethyl-1-(3-nitrophenyl)-1H-pyrrol-3-yl)prop-2-en-1-one]	51.2%	
11.5 µM	Cc1cc(/C=C/C(=O)c2cc(Br)ccc2O)c(C)n1C1CCCCC1 [Compound 10l, (E)-1-(5-Bromo-2-hydroxyphenyl)-3-(1-cyclohexyl-2,5-dimethyl-1H-pyrrol-3-yl)prop-2-en-1-one]	99.2%	
9.1 µM	COc1ccc2nc(Cl)c(/C=C/C(=O)c3cc(Br)ccc3O)cc2c1 [Compound 11b]	99.3%	

Continued, compound first:

Structure (SMILES)	IC50 [1, 3]	viability at 20 µM [2]	further results
COc1ccc(-n2c(C)cc(/C=C/C(=O)c3cc(Br)ccc3O)c2C)cc1 [Compound 10j, (E)-1-(5-Bromo-2-hydroxyphenyl)-3-(1-(4-methoxyphenyl)-2,5-dimethyl-1H-pyrrol-3-yl)prop-2-en-1-one]		> 100%	T. b. brucei IC50 [1, 4]: no activity
Cc1cc(/C=C/C(=O)c2cc(Br)ccc2O)c(C)[nH]1 [Compound 10k, (E)-1-(5-Bromo-2-hydroxyphenyl)-3-(2,5-dimethyl-1H-pyrrol-3-yl)prop-2-en-1-one]		> 100%	T. b. brucei IC50 [1, 4]: complete loss of activity
O=C(/C=C/c1c[nH]cn1)c1cc(Br)ccc1O [Compound 11a, (E)-1-(5-Bromo-2-hydroxyphenyl)-3-(1H-imidazol-4-yl)prop-2-en-1-one]		78.1%	T. b. brucei IC50 [1, 4]: no activity
Cc1cc(/C=C/C(=O)c2ccccc2)c(C)n1-c1ccc([N+](=O)[O-])cc1 [Compound 12, (E)-3-(2,5-Dimethyl-1-(4-nitrophenyl)-1H-pyrrol-3-yl)-1-phenylprop-2-en-1-one]		84.7%	melting point: 169 to 174 °C
Cc1ccc(C(=O)/C=C/c2cc(C)n(-c3ccc([N+](=O)[O-])cc3)c2C)cc1 [Compound 13, (E)-3-(2,5-Dimethyl-1-(4-nitrophenyl)-1H-pyrrol-3-yl)-1-(p-tolyl)prop-2-en-1-one]	44.3 µM	> 100%	melting point: 172 to 173 °C
Cc1cc(/C=C/C(=O)c2ccc(F)cc2)c(C)n1-c1ccc([N+](=O)[O-])cc1 [Compound 14, (E)-3-(2,5-Dimethyl-1-(4-nitrophenyl)-1H-pyrrol-3-yl)-1-(4-fluorophenyl)prop-2-en-1-one]	36.5 µM	99.4%	melting point: 160 to 164 °C
COc1ccc(C(=O)/C=C/c2cc(C)n(-c3ccc([N+](=O)[O-])cc3)c2C)cc1 [Compound 15, (E)-3-(2,5-Dimethyl-1-(4-nitrophenyl)-1H-pyrrol-3-yl)-1-(4-methoxyphenyl)prop-2-en-1-one]	12.3 µM	98.9%	melting point: 157 to 158 °C
COc1ccc(C(=O)/C=C/c2cc(C)n(-c3ccc([N+](=O)[O-])cc3)c2C)c(OC)c1 [Compound 16, (E)-1-(2,4-Dimethoxyphenyl)-3-(2,5-dimethyl-1-(4-nitrophenyl)-1H-pyrrol-3-yl)prop-2-en-1-one]	10.6 µM	> 100%	
Cc1cc(/C=C/C(=O)c2ccc([N+](=O)[O-])cc2)c(C)n1-c1ccc([N+](=O)[O-])cc1 [Compound 17, (E)-3-(2,5-Dimethyl-1-(4-nitrophenyl)-1H-pyrrol-3-yl)-1-(4-nitrophenyl)prop-2-en-1-one]			melting point: 175 to 178 °C; viability at 20 µM ([2]; single concentration 20 µM, duplicates, relative to untreated cells, read-out: HeLa %Viability (residual percentage viability)): > 100%
Cc1cc(/C=C/C(=O)c2cc(Cl)ccc2O)c(C)n1-c1cccc(C(F)(F)F)c1 [Compound 18, (E)-1-(5-Chloro-2-hydroxyphenyl)-3-(2,5-dimethyl-1-(3-(trifluoromethyl)phenyl)-1H-pyrrol-3-yl)prop-2-en-1-one]	9.3 µM	79.9%	
Cc1cc(/C=C/C(=O)c2cc(Cl)ccc2O)c(C)n1-c1cccc([N+](=O)[O-])c1 [Compound 19, (E)-1-(5-Chloro-2-hydroxyphenyl)-3-(2,5-dimethyl-1-(3-nitrophenyl)-1H-pyrrol-3-yl)prop-2-en-1-one]	11.7 µM	81.2%	
CC[C@H]1CN2CCc3cc(OC)c(OC)cc3[C@@H]2C[C@@H]1C[C@H]1NCCc2cc(OC)c(OC)cc21 [EMT, emetine, reference compound]			IC50 ([2]; HeLa cells, resazurin, read-out: HeLa cytotoxicity of reference drug (printed in the %Viability column with unit μM)): 0.76 µM
N=C(N)c1ccc(OCCCCCOc2ccc(C(=N)N)cc2)cc1 [PMD, Pentamidine, reference compound]			IC50 ([1]; read-out: T. b. brucei IC50 (positive control drug)): 0.00068 µM

Reference: article PMC7181280, “Synthesis, Structure and In Vitro Anti-Trypanosomal Activity of Non-Toxic Arylpyrrole-Based Chalcone Derivatives” (Molecules, 2020)
